How the values were obtained:
[1] = test system: Human immunodeficiency virus type 1 reverse transcriptase (Human immunodeficiency virus 1), Q72547 [L100I]; assay: Inhibition of HIV1 reverse transcriptase L100I mutant
[2] = test system: Human immunodeficiency virus type 1 reverse transcriptase (Human immunodeficiency virus 1), Q72547 [Y181C]; assay: Inhibition of HIV1 reverse transcriptase Y181C mutant
[3] = test system: Human immunodeficiency virus type 1 reverse transcriptase (Human immunodeficiency virus 1), Q72547 [[…]]; assay: Inhibition of HIV1 reverse transcriptase Y188L mutant
[4] = Hydrophobic index, Log P of the compound; format: physicochemical; details: octanol/water
[5] = molecular target: Human immunodeficiency virus type 1 reverse transcriptase (Human immunodeficiency virus 1) (UniProt Q72547); assay: Inhibition of HIV1 wild type reverse transcriptase

Q: What does the source list for Cc1cc(C#N)cc(C)c1Nc1nc(Nc2ccc(C#N)cc2)ncc1Cl?
A: log(1/C) [1]: 8.28; log(1/C) [2]: 7.85; log(1/C) [3]: 8.33; logP ([4]; read-out: logP): 1.11; log(1/C) [5]: 8.92

Q: With Cc1cc(C#N)cc(C)c1Nc1nc(Nc2ccc(C#N)cc2)ncc1C#N as the molecule, how does the log(1/C) [1] read?
A: 7.04

Q: What about the log(1/C) [2] of the same molecule?
A: 7.12

Q: What about the log(1/C) [3] of the same molecule?
A: 8.07

Q: What about the logP ([4]; read-out: logP) of the same molecule?
A: 1.06

Q: And the log(1/C) [5]?
A: 9.3

Q: Which logP ([4]; read-out: logP) does the source give for Cc1cc(C)c(Nc2nc(Nc3ccc(C#N)cc3)ncc2-c2ccccc2)c(C)c1 here?
A: 3.14

Q: And the log(1/C) [5]?
A: 7.62

Q: With Cc1cc(Cl)cc(C)c1Nc1ccnc(Nc2ccc(C#N)cc2)n1 as the molecule, how does the log(1/C) [1] read?
A: 6.49

Q: And the log(1/C) [2]?
A: 7.72

Q: What about the log(1/C) [3] of the same molecule?
A: 6.94

Q: And the logP ([4]; read-out: logP)?
A: 1.27

Q: And the log(1/C) [5]?
A: 8.68

Q: Which results are given for Cc1cc(C)c(Nc2nc(Nc3ccc(C#N)cc3)ncc2C#N)c(C)c1?
A: log(1/C) [1]: 7.2; log(1/C) [2]: 7.4; log(1/C) [3]: 7.11; logP ([4]; read-out: logP): 1.49; log(1/C) [5]: 9

Q: Which results are given for Cc1cc(C)c(Nc2nc(Nc3ccc(C#N)cc3)ncc2C)c(C)c1?
A: log(1/C) [1]: 7.92; log(1/C) [2]: 7.92; log(1/C) [3]: 7.74; logP ([4]; read-out: logP): 1.92; log(1/C) [5]: 8.77

Q: Which log(1/C) [1] does the source give for Cc1cc(Cl)cc(Cl)c1Nc1ccnc(Nc2ccc(C#N)cc2)n1 here?
A: 7.22

Q: And the log(1/C) [2]?
A: 7.74

Q: What about the log(1/C) [3] of the same molecule?
A: 7.07

Q: And the logP ([4]; read-out: logP)?
A: 0.89

Q: And the log(1/C) [5]?
A: 9

Q: What does the source list for Cc1cc(C#N)cc(C)c1Nc1nc(Nc2ccc(C#N)cc2)nc(CO)c1Br?
A: log(1/C) [1]: 8.7; log(1/C) [2]: 8.22; log(1/C) [3]: 8.22; logP ([4]; read-out: logP): 0.81; log(1/C) [5]: 8.4

Q: Which logP ([4]; read-out: logP) does the source give for C#Cc1cnc(Nc2ccc(C#N)cc2)nc1Nc1c(C)cc(C)cc1C here?
A: 1.63

Q: Which log(1/C) [1] does the source give for N#Cc1ccc(Nc2nccc(Nc3c(Cl)cc(Cl)cc3Cl)n2)cc1 here?
A: 7.85

Q: What about the log(1/C) [2] of the same molecule?
A: 8

Q: And the log(1/C) [3]?
A: 7

Q: What about the logP ([4]; read-out: logP) of the same molecule?
A: 0.51

Q: And the log(1/C) [5]?
A: 9.15

Q: For Cc1cc(C#N)cc(C)c1Oc1ccnc(Nc2ccc(C#N)cc2)n1, which log(1/C) [1] is on record?
A: 7.14

Q: And the log(1/C) [2]?
A: 7.43

Q: What about the log(1/C) [3] of the same molecule?
A: 7.72

Q: What about the logP ([4]; read-out: logP) of the same molecule?
A: 1.39

Q: And the log(1/C) [5]?
A: 8.96

Q: For Cc1cc(C#N)cc(C)c1Sc1ccnc(Nc2ccc(C#N)cc2)n1, which log(1/C) [1] is on record?
A: 6.76

Q: What about the log(1/C) [2] of the same molecule?
A: 7.17

Q: And the log(1/C) [3]?
A: 7.36

Q: And the logP ([4]; read-out: logP)?
A: 2.06

Q: And the log(1/C) [5]?
A: 8.24

Q: With Cc1cnc(Nc2ccc(C#N)cc2)nc1Nc1c(C)cc(C#N)cc1C as the molecule, how does the log(1/C) [1] read?
A: 7.8

Q: And the log(1/C) [2]?
A: 7.92

Q: And the log(1/C) [3]?
A: 7.8

Q: What about the logP ([4]; read-out: logP) of the same molecule?
A: 1.49

Q: What about the log(1/C) [5] of the same molecule?
A: 9.1

Q: What does the source list for Cc1cc(C#N)cc(C)c1Oc1nc(Nc2ccc(C#N)cc2)ncc1Cl?
A: log(1/C) [1]: 8.12; log(1/C) [2]: 7.47; log(1/C) [3]: 8.32; logP ([4]; read-out: logP): 1.29; log(1/C) [5]: 8.85

Q: Which log(1/C) [1] does the source give for Cc1cccc(C)c1Nc1ccnc(Nc2ccc(C#N)cc2)n1 here?
A: 6.67

Q: What about the log(1/C) [2] of the same molecule?
A: 7.21

Q: And the log(1/C) [3]?
A: 6.59

Q: What about the logP ([4]; read-out: logP) of the same molecule?
A: 1.49

Q: And the log(1/C) [5]?
A: 9.15

Q: For Cc1cc(Br)c(Nc2ccnc(Nc3ccc(C#N)cc3)n2)c(Br)c1, which log(1/C) [1] is on record?
A: 8.52

Q: What about the log(1/C) [2] of the same molecule?
A: 8.47

Q: What about the logP ([4]; read-out: logP) of the same molecule?
A: 1.44

Q: And the log(1/C) [5]?
A: 9.15

Q: For Cc1cc(C#N)cc(C)c1Oc1nc(Nc2ccc(C#N)cc2)ncc1N, which log(1/C) [1] is on record?
A: 7.8

Q: And the log(1/C) [2]?
A: 8.03

Q: What about the log(1/C) [3] of the same molecule?
A: 8.24

Q: What about the logP ([4]; read-out: logP) of the same molecule?
A: -0.21

Q: And the log(1/C) [5]?
A: 9

Q: For CC(=O)Nc1cnc(Nc2ccc(C#N)cc2)nc1Oc1c(C)cc(C#N)cc1C, which logP ([4]; read-out: logP) is on record?
A: -0.38

Q: What does the source list for Cc1cc(C)c(Oc2nc(Nc3ccc(C#N)cc3)ncc2Br)c(C)c1?
A: log(1/C) [1]: 7.96; log(1/C) [2]: 7.44; log(1/C) [3]: 7.57; logP ([4]; read-out: logP): 1.82; log(1/C) [5]: 8.26

Q: For Cc1cc(Br)cc(C)c1Oc1ccnc(Nc2ccc(C#N)cc2)n1, which log(1/C) [1] is on record?
A: 6.95

Q: What about the log(1/C) [2] of the same molecule?
A: 7.23

Q: And the log(1/C) [3]?
A: 7.1

Q: And the logP ([4]; read-out: logP)?
A: 1.72

Q: And the log(1/C) [5]?
A: 8.54

Q: For Cc1cc(Br)cc(C)c1Nc1ccnc(Nc2ccc(C#N)cc2)n1, which log(1/C) [1] is on record?
A: 7.12

Q: What about the log(1/C) [2] of the same molecule?
A: 7.77

Q: What about the log(1/C) [3] of the same molecule?
A: 7.16

Q: And the logP ([4]; read-out: logP)?
A: 1.54

Q: And the log(1/C) [5]?
A: 8.64

Q: Which results are given for C#Cc1cc(C)c(Oc2ccnc(Nc3ccc(C#N)cc3)n2)c(C)c1?
A: log(1/C) [1]: 6.73; log(1/C) [2]: 6.77; log(1/C) [3]: 7.3; logP ([4]; read-out: logP): 1.53; log(1/C) [5]: 8.26

Q: For C=Cc1cnc(Nc2ccc(C#N)cc2)nc1Nc1c(C)cc(C)cc1C, which log(1/C) [1] is on record?
A: 7.46

Q: What about the log(1/C) [2] of the same molecule?
A: 7.44

Q: What about the log(1/C) [3] of the same molecule?
A: 7.54

Q: What about the logP ([4]; read-out: logP) of the same molecule?
A: 2.1

Q: And the log(1/C) [5]?
A: 8.6

Q: What does the source list for Cc1cc(C)c(Nc2ccnc(Nc3ccc(C#N)cc3)n2)c(C)c1 [DAPIVIRINE]?
A: log(1/C) [1]: 7.74; log(1/C) [2]: 8.12; log(1/C) [3]: 7.32; logP ([4]; read-out: logP): 1.64; log(1/C) [5]: 9

Q: With Cc1cc(C#N)cc(C)c1Nc1nc(Nc2ccc(C#N)cc2)nc(NO)c1Br as the molecule, how does the log(1/C) [1] read?
A: 8.92

Q: And the log(1/C) [2]?
A: 7.92

Q: What about the logP ([4]; read-out: logP) of the same molecule?
A: 2.18

Q: What about the log(1/C) [5] of the same molecule?
A: 8.4

Q: For Cc1cc(C)c(Oc2ccnc(Nc3ccc(C#N)cc3)n2)c(C)c1, which log(1/C) [1] is on record?
A: 7.66

Q: And the log(1/C) [2]?
A: 7.42

Q: And the log(1/C) [3]?
A: 7.26

Q: And the logP ([4]; read-out: logP)?
A: 1.82

Q: And the log(1/C) [5]?
A: 8.54

Q: Which log(1/C) [1] does the source give for Cc1cc(C)c(Sc2ccnc(Nc3ccc(C#N)cc3)n2)c(C)c1 here?
A: 7.27

Q: And the log(1/C) [2]?
A: 7.6

Q: What about the log(1/C) [3] of the same molecule?
A: 7.7

Q: And the logP ([4]; read-out: logP)?
A: 2.16

Q: And the log(1/C) [5]?
A: 8.44

Q: For Cc1cc(C#N)cc(C)c1Nc1nc(Nc2ccc(C#N)cc2)ncc1Br, which log(1/C) [1] is on record?
A: 8.15

Q: What about the log(1/C) [2] of the same molecule?
A: 8.02

Q: And the log(1/C) [3]?
A: 8.48

Q: What about the logP ([4]; read-out: logP) of the same molecule?
A: 1.39

Q: And the log(1/C) [5]?
A: 9.4

Q: Which log(1/C) [1] does the source give for N#Cc1ccc(Nc2nccc(Nc3c(Br)cc(F)cc3Br)n2)cc1 here?
A: 7.82

Q: What about the log(1/C) [2] of the same molecule?
A: 7.82

Q: And the log(1/C) [3]?
A: 7.19

Q: What about the logP ([4]; read-out: logP) of the same molecule?
A: 0.68

Q: What about the log(1/C) [5] of the same molecule?
A: 9.22

Q: Which log(1/C) [1] does the source give for Cc1cc(C)c(Nc2nc(Nc3ccc(C#N)cc3)ncc2Cl)c(C)c1 here?
A: 7.77

Q: And the log(1/C) [2]?
A: 7.49

Q: And the log(1/C) [3]?
A: 7.47

Q: And the logP ([4]; read-out: logP)?
A: 1.72

Q: What about the log(1/C) [5] of the same molecule?
A: 8.57

Q: What does the source list for Cc1cc(C#N)cc(C)c1Oc1nc(Nc2ccc(C#N)cc2)ncc1[N+](=O)[O-]?
A: log(1/C) [1]: 6.92; log(1/C) [2]: 6.52; log(1/C) [3]: 6.11; logP [4]: 0.7; log(1/C) [5]: 7.74

Q: What does the source list for Cc1cc(C#N)cc(C)c1Oc1nc(Nc2ccc(C#N)cc2)nc(N)c1Br [ETRAVIRINE]?
A: log(1/C) [1]: 8.48; log(1/C) [2]: 8.15; log(1/C) [3]: 8.34; logP ([4]; read-out: logP): 1.54; log(1/C) [5]: 8.85

Q: For Cc1cc(C#N)cc(C)c1Nc1ccnc(Nc2ccc(C#N)cc2)n1, which log(1/C) [1] is on record?
A: 7.47

Q: What about the log(1/C) [2] of the same molecule?
A: 8.15

Q: What about the log(1/C) [3] of the same molecule?
A: 8.11

Q: And the logP ([4]; read-out: logP)?
A: 1.21

Q: What about the log(1/C) [5] of the same molecule?
A: 9.4

Reference: ChEMBL document CHEMBL1153846, “QSAR studies for diarylpyrimidines against HIV-1 reverse transcriptase wild-type and mutant strains” (Eur J Med Chem, 2009)
